Patent publication US10526330B2, “JAK kinase inhibitor compounds for treatment of respiratory disease” (THERAVANCE BIOPHARMA R&D IP, LLC, priority 2015, dated 2020)
One block for each molecule: values may come before it.

Experiments:
[1] = Pharmacokinetics in plasma and lung in mouse; type: in vivo; details: oral aspiration, lung AUC (μg hr/g) to plasma AUC (μg hr/mL)
Protocol: Plasma and lung levels of test compounds and ratios thereof were determined in the following manner. BALB/c mice from Charles River Laboratories were used in the assay. Test compounds were individually formulated in 20% propylene glycol in pH 4 citrate buffer at a concentration of 0.2 mg/mL and 50 uL of the dosing solution was introduced into the trachea of a mouse by oral aspiration. At various time points (typically 0.167, 2, 6, 24 hr) post dosing, blood samples were removed via cardiac puncture and intact lungs were excised from the mice. Blood samples were centrifuged (Eppendorf centrifuge, 5804R) for 4 minutes at approximately 12,000 rpm at 4° C. to collect plasma. Lungs were padded dry, weighed, and homogenized at a dilution of 1:3 in sterile water. Plasma and lung levels of test compound were determined by LC-MS analysis against analytical standards constructed into a standard curve in the test matrix. A lung to plasma ratio was determined as the ratio of the lung AUC in μg hr/g to the plasma AUC in μg hr/mL, where AUC is conventionally defined as the area under the curve of test compound concentration vs. time.

[2] = test system: IL-13 induced STAT6 phosphorylation in BEAS-2B human lung epithelial cells; assay: AlphaScreen JAK1 cellular potency assay in BEAS-2B cells; type: cell-based
[3] = Dynamic moisture sorption assessment; type: physicochemical
Protocol: Dynamic moisture sorption (DMS) measurement was performed using a VTI atmospheric microbalance, SGA-100 system (VTI Corp., Hialeah, Fla. 33016). A weighed sample was used and the humidity was lowest possible value (close to 0% RH) at the start of the analysis. The DMS analysis consisted of an initial drying step (˜0% RH) for 120 minutes, followed by two cycles of sorption and desorption with a scan rate of 5% RH/step over the humidity range of 5% RH to 90% RH. The DMS run was performed isothermally at 25° C.

[4] = test system: IL-13 induced pSTAT6; assay: Murine model of IL-13 induced pSTAT6 induction in lung tissue; type: in vivo; details: mouse lung; for lung concentration smaller than that of the corresponding compound of the invention by a factor: pharmacodynamic assay, versus Examples 1, 7, 13, 6
Protocol: Il-13 is an important cytokine underlying the pathophysiology of asthma (Kudlacz et al. Eur. J. Pharmacol, 2008, 582, 154-161). IL-13 binds to cell surface receptors activating members of the Janus family of kinases (JAK) which then phosphorylate STAT6 and subsequently activates further transcription pathways. In the described model, a dose of IL-13 was delivered locally into the lungs of mice to induce the phosphorylation of STAT6 (pSTAT6) which is then measured as the endpoint.
Adult balb/c mice from Harlan were used in the assay. On the day of study, animals were lightly anesthetized with isoflurane and administered either vehicle or test compound (0.5 mg/mL, 50 μL total volume over several breaths) via oral aspiration. Animals were placed in lateral recumbency post dose and monitored for full recovery from anesthesia before being returned to their home cage. Four hours later, animals were once again briefly anesthetized and challenged with either vehicle or IL-13 (0.03 μg total dose delivered, 50 μL total volume) via oral aspiration before being monitored for recovery from anesthesia and returned to their home cage. One hour after vehicle or IL-13 administration, lungs were collected for both pSTAT6 detection using an anti-pSTAT6 ELISA (rabbit mAb capture/coating antibody; mouse mAb detection/report antibody: anti-pSTAT6-pY641; secondary antibody: anti-mouse IgG-HRP) and analyzed for total drug concentration as described above in Assay 4.
Selected compounds of the invention were tested in the assay. Activity in the model is evidenced by a decrease in the level of pSTAT6 present in the lungs of treated animals at 5 hours compared to the vehicle treated, IL-13 challenged control animals. The difference between the control animals which were vehicle-treated, IL-13 challenged and the control animals which were vehicle-treated, vehicle challenged dictated the 0% and 100% inhibitory effect, respectively, in any given experiment.

[5] = target: JAK1 (Homo sapiens (Human), UniProt P23458); assay: LanthaScreen JAK1 biochemical assay; details: versus Examples 1, 7, 13, 6
Chain of JAK1 (P23458 whole entry): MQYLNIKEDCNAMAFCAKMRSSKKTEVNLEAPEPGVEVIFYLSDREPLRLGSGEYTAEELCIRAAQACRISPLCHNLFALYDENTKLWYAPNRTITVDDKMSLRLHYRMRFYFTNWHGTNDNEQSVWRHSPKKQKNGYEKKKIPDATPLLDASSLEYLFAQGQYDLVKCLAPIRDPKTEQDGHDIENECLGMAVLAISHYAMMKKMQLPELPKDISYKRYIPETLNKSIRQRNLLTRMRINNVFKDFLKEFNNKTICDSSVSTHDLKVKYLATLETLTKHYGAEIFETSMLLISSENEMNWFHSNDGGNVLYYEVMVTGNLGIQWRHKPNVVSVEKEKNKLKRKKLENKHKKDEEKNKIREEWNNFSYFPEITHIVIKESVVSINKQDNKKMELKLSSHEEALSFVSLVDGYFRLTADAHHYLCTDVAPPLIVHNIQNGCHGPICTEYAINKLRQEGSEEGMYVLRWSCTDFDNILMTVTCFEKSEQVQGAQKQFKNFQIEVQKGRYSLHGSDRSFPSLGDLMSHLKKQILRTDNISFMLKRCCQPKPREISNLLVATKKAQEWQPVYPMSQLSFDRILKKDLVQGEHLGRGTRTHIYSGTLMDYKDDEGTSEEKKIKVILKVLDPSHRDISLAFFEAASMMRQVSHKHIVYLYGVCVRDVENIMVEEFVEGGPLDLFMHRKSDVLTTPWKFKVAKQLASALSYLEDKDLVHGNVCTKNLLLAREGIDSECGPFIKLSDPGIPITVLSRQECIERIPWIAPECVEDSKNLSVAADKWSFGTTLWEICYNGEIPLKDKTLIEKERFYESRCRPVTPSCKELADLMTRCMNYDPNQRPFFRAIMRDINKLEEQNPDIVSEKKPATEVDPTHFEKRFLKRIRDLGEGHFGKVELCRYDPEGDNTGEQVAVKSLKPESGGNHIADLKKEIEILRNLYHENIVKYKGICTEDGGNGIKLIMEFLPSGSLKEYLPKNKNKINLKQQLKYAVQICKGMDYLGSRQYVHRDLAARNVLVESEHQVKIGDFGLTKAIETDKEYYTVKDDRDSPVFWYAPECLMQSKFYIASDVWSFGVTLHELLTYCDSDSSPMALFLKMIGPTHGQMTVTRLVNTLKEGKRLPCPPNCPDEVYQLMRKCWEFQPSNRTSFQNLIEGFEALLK

Lung to Plasma ratio Assay 4 [1]: A (A denotes a ratio >100)
SMILES: CCc1cc(O)c(F)cc1-c1ccc2c(-c3nc4c([nH]3)CCN(C[C@H]3COCCN3)C4)n[nH]c2c1 [Example 13, (S)-5-Ethyl-2-fluoro-4-(3-(5-(morpholin-3-ylmethyl)-4,5,6,7-tetrahydro-1H-imidazo[4,5-c]pyridin-2-yl)-1H-indazol-6-yl)phenol]

SMILES: CCc1cc(O)c(F)cc1-c1ccc2c(-c3nc4c([nH]3)CCN(CCNC3CC(OC)C3)C4)n[nH]c2c1 (centres unmarked) [Example 3-30]
BEAS-2B pIC50 [2]: A (A represents a pIC50 value ≥8 (IC50≤10 nM))

Lung to Plasma ratio Assay 4 [1]: A (A denotes a ratio >100)
SMILES: CCc1cc(O)c(F)cc1-c1ccc2c(-c3nc4c([nH]3)CCN(C[C@@H]3CCCN3C)C4)n[nH]c2c1 [Example 11, (S)-5-ethyl-2-fluoro-4-(3-(5-((1-methylpyrrolidin-2-yl)methyl)-4,5,6,7-tetrahydro-1H-imidazo[4,5-c]pyridin-2-yl)-1H-indazol-6-yl)phenol]

Lung to Plasma ratio Assay 4 [1]: A (A denotes a ratio >100)
SMILES: CCc1cc(O)c(F)cc1-c1ccc2c(-c3nc4c([nH]3)CCN(CCN(C)CC(C)C)C4)n[nH]c2c1 [Example 3-33]

hygroscopicity [3]: non-hygroscopic
weight gain (dynamic moisture sorption) ([3]; 5% to 90% relative humidity, 25° C.): less than 0.12%
SMILES: CCc1cc(O)c(F)cc1-c1ccc2c(-c3nc4c([nH]3)CCN(C3CCN(C)CC3)C4)n[nH]c2c1 [crystalline hydrate, 5-ethyl-2-fluoro-4-(3-(5-(1-methylpiperidin-4-yl)-4,5,6,7-tetrahydro-1H-imidazo[4,5-c]pyridin-2-yl)-1H-indazol-6-yl)phenol]

SMILES: CCc1cc(O)c(F)cc1-c1ccc2c(-c3nc4c([nH]3)CCN(CCC(C)C)C4)n[nH]c2c1 [Example C-2]
lung concentration smaller than that of the corresponding compound of the invention by a factor [4]: 52
fold less potent than the corresponding compound of the invention in the enzyme assay [5]: 3 fold

Lung to Plasma ratio Assay 4 [1]: A (A denotes a ratio >100)
SMILES: CCc1cc(O)c(F)cc1-c1ccc2c(-c3nc4c([nH]3)CCN(CC3CNC3)C4)n[nH]c2c1 [Example 14-7]

SMILES: CCc1cc(O)c(F)cc1-c1ccc2c(-c3nc4c([nH]3)CCN(C3CC(C)C3)C4)n[nH]c2c1 (centres unmarked) [Example C-1, 5-Ethyl-2-fluoro-4-(3-(5-(3-methylcyclobutyl)-4,5,6,7-tetrahydro-1H-imidazo[4,5-c]pyridin-2-yl)-1H-indazol-6-yl)phenol]
lung concentration smaller than that of the corresponding compound of the invention by a factor [4]: 36
fold less potent than the corresponding compound of the invention in the enzyme assay [5]: 2 fold

Lung to Plasma ratio Assay 4 [1]: A (A denotes a ratio >100)
SMILES: CCc1cc(O)c(F)cc1-c1ccc2c(-c3nc4c([nH]3)CCN(C[C@@H]3COCCN3)C4)n[nH]c2c1 [Example 14, (R)-5-Ethyl-2-fluoro-4-(3-(5-(morpholin-3-ylmethyl)-4,5,6,7-tetrahydro-1H-imidazo[4,5-c]pyridin-2-yl)-1H-indazol-6-yl)phenol]

SMILES: CCc1cc(O)c(F)cc1-c1ccc2c(-c3nc4c([nH]3)CCN(CC3CCCOC3)C4)n[nH]c2c1 (centres unmarked) [Example C-3]
lung concentration smaller than that of the corresponding compound of the invention by a factor [4]: 13
fold less potent than the corresponding compound of the invention in the enzyme assay [5]: 6 fold

SMILES: CCc1cc(O)c(F)cc1-c1ccc2c(-c3nc4c([nH]3)CCN(C3CCC(C)CC3)C4)n[nH]c2c1 (centres unmarked) [Example C-4]
lung concentration smaller than that of the corresponding compound of the invention by a factor [4]: 23
fold less potent than the corresponding compound of the invention in the enzyme assay [5]: 2.5 fold

SMILES: CCc1cc(O)c(F)cc1-c1ccc2c(-c3nc4c([nH]3)CCN(CCNC3(C#N)CC3)C4)n[nH]c2c1 [Example 3-1]
pSTAT6 inhibition in the pharmacodynamic assay [4]: noted as exceptions

Lung to Plasma ratio Assay 4 [1]: A (A denotes a ratio >100)
SMILES: CCc1cc(O)c(F)cc1-c1ccc2c(-c3nc4c([nH]3)CCN(CCNC3CC(OC)C3)C4)n[nH]c2c1 (centres unmarked) [Example 8, 5-Ethyl-2-fluoro-4-(3-(5-(2-((3-methoxycyclobutyl)amino)ethyl)-4,5,6,7-tetrahydro-1H-imidazo[4,5-c]pyridin-2-yl)-1H-indazol-6-yl)phenol]

Lung to Plasma ratio Assay 4 [1]: A (A denotes a ratio >100)
SMILES: CCc1cc(O)c(F)cc1-c1ccc2c(-c3nc4c([nH]3)CCN(CCN3CCC[C@@H]3C)C4)n[nH]c2c1 [Example 15, (S)-5-ethyl-2-fluoro-4-(3-(5-(2-(2-methylpyrrolidin-1-yl)ethyl)-4,5,6,7-tetrahydro-1H-imidazo[4,5-c]pyridin-2-yl)-1H-indazol-6-yl)phenol]

SMILES: CCc1cc(O)c(F)cc1-c1ccc2c(-c3nc4c([nH]3)CCN(C3CN(C5CCS(=O)(=O)C5)C3)C4)n[nH]c2c1 (centres unmarked) [Example 1-15]
pSTAT6 inhibition in the pharmacodynamic assay [4]: noted as exceptions
